Measurements reported in US20260193228A1, “TRIAZINONE DERIVATIVES AS NLRP3 INHIBITORS” (Hoffmann-La Roche Inc., priority 2022, published 2026).
pIC50: −log10 of the molar value.

Experiments:
Format in all cases: cell-based
NLRP3 [1] = target: T1, NLRP3 (Homo sapiens, UniProt Q96P20); test: THP-1 cells pyroptosis assay; parameters: Seed THP-1 cells (25,000 cells/well) containing 1.0 μg/ml LPS; host or cells: THP-1 cells; conditions: 1.0 μg/ml LPS, nigericin 5 μM, resazurin readout
Description: THP-1 cells (ATCC #TIB-202) were grown in RPMI containing L-glutamine (Gibco #11835) supplemented with 1 mM sodium pyruvate (Sigma #S8636) and penicillin (100 units/ml)/streptomycin (0.1 mg/ml) (Sigma #P4333) in 10% Fetal Bovine Serum (FBS) (Sigma #F0804). The cells were routinely passaged and grown to confluency (~10^6 cells/ml). On the day of the experiment, THP-1 cells were harvested and resuspended into RPMI medium (without FBS). The cells were then counted and viability (>90%) checked by Trypan blue (Sigma #T8154). Appropriate dilutions were made to give a concentration of 625,000 cells/ml. To this diluted cell solution was added LPS (Sigma #L4524) to give a […] Final Assay Concentration (FAC). 40 μl of the final preparation was aliquoted into each well of a 96-well plate. The plate thus prepared was used for compound screening.
The following method step-by-step assay was followed for compound screening. • 1. Seed THP-1 cells (25,000 cells/well) containing 1.0 μg/ml LPS in 40 μl of RPMI medium (without FBS) in 96-well, black walled, clear bottom cell culture plates coated with poly-D-lysine (VWR #734-0317) • 2. Add 5 μl compound (8 points half-log dilution, with 10 μM top dose) or vehicle (DMSO 0.1% FAC) to the appropriate wells • 3. Incubate for 3 hours at 37° C., 5% CO2 • 4. Add 5 μl nigericin (Sigma #N7143) (FAC 5 μM) to all wells • 5. Incubate for 1 hr at 37° C., 5% CO2 • 6. At the end of the incubation period, spin plates at 300×g for 3 mins and remove supernatant • 7. Then add 50 μl of resazurin (Sigma #R7017) (FAC 100 μM resazurin in RPMI medium without FBS) and incubate plates for a further 1-2 hours at 37° C. and 5% CO2 • 8. Plates were read in an Envision reader at Ex 560 nm and Em 590 nm • 9. IC50 data is fitted to a non-linear regression equation (log inhibitor vs response-variable slope 4-parameters)

[2] = target: T2, hERG cardiac potassium channel (Homo sapiens, UniProt Q12809); test: hERG screening assay (automated patch clamp, CHO crelox hERG cells); conditions: CHO crelox hERG cells (CHO cells that express hERG), whole-cell patch clamp, 35-37° C.
T2 construct: host or cells: CHO crelox hERG cell line (Chinese hamster)
Source text: In the drug development process of small molecules, one of the most frequent adverse side effects, leading to the failure of drugs, is the cardiac arrhythmias. Such failure is often related to the capacity of the drug to inhibit the human ether-a-go-go-related gene (hERG) cardiac potassium channel. Having no or low inhibition of the hERG cardiac potassium channel is therefore considered as beneficial.
The CHO crelox hERG cell line (ATCC reference Nr. PTA-6812, female Chinese hamster cells) was generated and validated at Roche. Ready-to-use frozen instant CHO-hERG cells were cryopreserved at Evotec (Germany) and used directly in the experiments.
The extracellular solution contains (in mM): NaCl 150; KCl 4; CaCl2 1; MgCl2 1; HEPES 10; pH 7.2-7.4 with NaOH, osmolarity 290-330 mOsm. […]
The effects of a compound on hERG K+-currents parameters will be evaluated at 2 concentrations in at least 4 cells.
The hERG test is performed using automated patch clamp system SynchroPatch® 384 (Nanion Technologies GmbH, Germany). K+ currents are measured with the patch-voltage-clamp technique in the whole-cell configuration at 35-37° C. […]
The amplitudes of IKhERG were recorded in each concentration of drug and they were compared to the vehicle control values (taken as 100%) to define fractional blocks. […]

NLRP3 [3] = target: T1, NLRP3; test: Human whole blood IL-1β release assay; conditions: 1 μg/ml LPS, nigericin 10 μM, IL-1β AlphaLisa
Description: For systemic delivery, the ability to inhibit NLRP3 when the compounds are present within the bloodstream is of great importance. For this reason, the NLRP3 inhibitory activity of a number of compounds in human whole blood was investigated in accordance with the following protocol.
Human whole blood in Li-heparin tubes was obtained from healthy donors from a volunteer donor panel. • 1. Plate out 80 μl of whole blood containing 1 μg/ml of LPS in 96-well, clear bottom cell culture plate (Corning #3585) • 2. Add 10 μl compound (8 points half-log dilution with 10 μM top dose) or vehicle (DMSO 0.1% FAC) to the appropriate wells • 3. Incubate for 3 hours at 37° C., 5% CO2 • 4. Add 10 μl nigericin (Sigma #N7143) (10 μM FAC) to all wells • 5. Incubate for 1 hr at 37° C., 5% CO2 • 6. At the end of the incubation period, spin plates at 300×g for 5 mins to pellet cells and remove 20 μl of supernatant and add to 96-well v-bottom plates for IL-1β analysis (note: these plates containing the supernatants can be stored at −80° C. to be analysed at a later date) • 7. IL-1β was measured according to the manufacturer protocol (Perkin Elmer-AlphaLisa IL-1 Kit AL220F-5000) • 8. IC50 data is fitted to a non-linear regression equation (log inhibitor vs response-variable slope 4-parameters)

T1 sequence (Q96P20 whole entry): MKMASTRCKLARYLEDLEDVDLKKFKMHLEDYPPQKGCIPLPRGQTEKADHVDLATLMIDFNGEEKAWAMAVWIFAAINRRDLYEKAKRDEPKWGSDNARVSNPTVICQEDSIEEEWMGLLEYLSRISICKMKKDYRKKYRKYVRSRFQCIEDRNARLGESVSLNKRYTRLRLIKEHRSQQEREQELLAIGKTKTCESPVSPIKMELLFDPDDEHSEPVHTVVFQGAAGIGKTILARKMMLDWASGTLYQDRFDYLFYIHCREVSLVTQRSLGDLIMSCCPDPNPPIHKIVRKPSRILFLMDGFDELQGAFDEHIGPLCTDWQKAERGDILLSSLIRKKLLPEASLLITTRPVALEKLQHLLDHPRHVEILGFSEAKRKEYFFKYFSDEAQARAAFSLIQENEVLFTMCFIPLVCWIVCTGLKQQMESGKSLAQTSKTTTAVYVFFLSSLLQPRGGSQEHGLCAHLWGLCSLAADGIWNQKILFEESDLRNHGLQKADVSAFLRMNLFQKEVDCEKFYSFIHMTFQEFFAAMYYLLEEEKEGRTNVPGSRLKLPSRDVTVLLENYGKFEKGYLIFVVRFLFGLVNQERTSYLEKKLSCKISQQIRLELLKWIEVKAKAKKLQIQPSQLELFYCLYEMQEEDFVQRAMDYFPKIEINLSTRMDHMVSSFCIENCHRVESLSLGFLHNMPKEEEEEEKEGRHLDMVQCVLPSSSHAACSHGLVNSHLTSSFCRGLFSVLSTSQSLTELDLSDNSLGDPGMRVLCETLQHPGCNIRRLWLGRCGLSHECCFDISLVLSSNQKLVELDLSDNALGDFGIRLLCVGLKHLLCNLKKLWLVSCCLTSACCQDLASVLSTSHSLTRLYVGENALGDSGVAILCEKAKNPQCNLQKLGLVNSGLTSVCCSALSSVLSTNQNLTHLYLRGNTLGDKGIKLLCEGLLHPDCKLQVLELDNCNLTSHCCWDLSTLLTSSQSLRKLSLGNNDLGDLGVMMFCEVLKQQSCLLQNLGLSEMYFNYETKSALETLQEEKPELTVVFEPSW
T2 sequence (Q12809 whole entry): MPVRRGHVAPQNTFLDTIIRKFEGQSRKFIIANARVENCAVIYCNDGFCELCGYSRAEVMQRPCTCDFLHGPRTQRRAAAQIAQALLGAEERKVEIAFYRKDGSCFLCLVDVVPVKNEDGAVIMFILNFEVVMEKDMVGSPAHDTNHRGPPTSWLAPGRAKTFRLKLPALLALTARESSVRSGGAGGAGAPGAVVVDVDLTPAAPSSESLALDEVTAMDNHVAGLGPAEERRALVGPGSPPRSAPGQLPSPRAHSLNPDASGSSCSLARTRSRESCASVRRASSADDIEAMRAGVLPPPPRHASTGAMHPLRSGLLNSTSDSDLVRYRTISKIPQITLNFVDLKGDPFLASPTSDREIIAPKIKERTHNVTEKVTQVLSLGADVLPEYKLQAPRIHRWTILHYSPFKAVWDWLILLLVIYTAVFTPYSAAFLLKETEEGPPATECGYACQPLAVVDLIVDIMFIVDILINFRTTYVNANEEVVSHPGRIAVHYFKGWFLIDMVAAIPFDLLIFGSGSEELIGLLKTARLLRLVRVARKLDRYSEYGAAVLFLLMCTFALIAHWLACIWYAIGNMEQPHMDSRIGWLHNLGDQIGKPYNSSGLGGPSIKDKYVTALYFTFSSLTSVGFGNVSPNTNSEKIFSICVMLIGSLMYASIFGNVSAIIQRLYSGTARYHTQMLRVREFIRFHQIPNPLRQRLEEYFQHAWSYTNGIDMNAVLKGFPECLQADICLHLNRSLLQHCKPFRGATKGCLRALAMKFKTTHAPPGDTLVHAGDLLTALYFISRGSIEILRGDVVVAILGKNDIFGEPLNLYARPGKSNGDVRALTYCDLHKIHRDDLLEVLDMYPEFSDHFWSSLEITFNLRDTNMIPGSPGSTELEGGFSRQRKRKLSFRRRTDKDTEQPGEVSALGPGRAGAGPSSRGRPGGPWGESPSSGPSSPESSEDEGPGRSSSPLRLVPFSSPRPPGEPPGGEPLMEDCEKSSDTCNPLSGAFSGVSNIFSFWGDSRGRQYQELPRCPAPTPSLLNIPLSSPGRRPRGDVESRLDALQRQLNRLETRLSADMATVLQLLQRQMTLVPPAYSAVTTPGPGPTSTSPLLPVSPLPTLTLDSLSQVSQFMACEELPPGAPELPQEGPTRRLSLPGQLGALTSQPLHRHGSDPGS

SMILES | pIC50 (NLRP3 [1]) | IC20 [2] [nM] | pIC50 (NLRP3 [3])
CCN1CCC[C@@H](Nc2nnc(-c3ccc(C(F)(F)F)cc3O)c(=O)n2C)C1 [Example 1, 3-[[(3R)-1-Ethyl-3-piperidyl]amino]-6-[2-hydroxy-4-(trifluoromethyl)phenyl]-4-methyl-1,2,4-triazin-5-one; Formic Acid] | 6.21 | – | –
CCN1CCC[C@@H](Nc2nnc(-c3c(C)cc(C(F)(F)F)cc3O)c(=O)n2C)C1 [Example 2, 3-[[(3R)-1-ethyl-3-piperidyl]amino]-6-[2-hydroxy-6-methyl-4-(trifluoromethyl)phenyl]-4-methyl-1,2,4-triazin-5-one] | 7.50 | > 10000 | 7.28
CCN1CCC[C@@H](Nc2nnc(-c3c(C)cc4c(c3O)CCC4)c(=O)n2C)C1 [Example 3, 3-[[(3R)-1-Ethyl-3-piperidyl]amino]-6-(4-hydroxy-6-methyl-indan-5-yl)-4-methyl-1,2,4-triazin-5-one] | 7.77 | > 10000 | 7.39
Cc1cc2c(c(O)c1-c1nnc(N[C@@H]3CCCN(CCO)C3)n(C)c1=O)CCC2 [Example 4, 3-[[(3R)-1-(2-Hydroxyethyl)-3-piperidyl]amino]-6-(4-hydroxy-6-methyl-indan-5-yl)-4-methyl-1,2,4-triazin-5-one] | 6.61 | – | –
CCN1CCC[C@@H](Nc2nnc(-c3c(C)cc4c(c3O)CCO4)c(=O)n2C)C1 [Example 5, 3-[[(3R)-1-Ethyl-3-piperidyl]amino]-6-(4-hydroxy-6-methyl-2,3-dihydrobenzofuran-5-yl)-4-methyl-1,2,4-triazin-5-one] | 7.41 | – | 7.48
CCN1CCC[C@@H](Nc2nnc(-c3c(C)cc(Cl)cc3O)c(=O)n2C)C1 [Example 6, 6-(4-Chloro-2-hydroxy-6-methyl-phenyl)-3-[[(3R)-1-ethyl-3-piperidyl]amino]-4-methyl-1,2,4-triazin-5-one] | 7.48 | – | 7.39
